Legend:
Type in all cases: in vivo
Cultured Rice [1] = assay: Pre-emergent control of seed germination, soil drench; conditions: about 2 weeks
Excerpt: (§1) Four parts by weight of the compound, 0.08 part of sorbitan trioleate (Span 85), and 0.02 part of a sorbitan monooleate polyoxyethylene derivative (Tween 80) are dipersed in 40 milliliters of acetone to produce a concentrate composition in the form of a water-dispersible liquid containing the predetermined oxirane compound as the sole active agent.
(§2) A portion of each of these concentrate compositions were separately dispersed in portions of water to provide aqueous compositions, containing 0.44 pound of the oxirane compound per 100 gallons of ultimate aqueous mixture.
(§3) The aqueous compositions were then employed for the treatment of seed beds of good agricultural soil which had been prepared and seeded with the seeds of various grass species and broadleaf plants. The grass species included white winter wheat, cultured rice, pigweeds, crabgrass, cheat grass, wild oats, Johnson grass, barnyard grass and yellow foxtail; and the broadleaf plants included corn. In the treating operations, a predetermined quantity of each of the compositions was applied to separate seedbeds as a soil drench at a rate of about 0.43 acre inch of aqueous composition per acre. The quantities were controlled to supply a substantial uniform dosage in a seedbed equivalent to 1.0, 2.0 and 5.0 pounds of the oxirane compound per acre. These dosages correspond, respectively, to a concentration, within the soil depth penetrated of about 1.6, 3.2 and 8.0 parts by weight of the oxirane compound per million parts by weight of soil. Other seedbeds were similarly seeded with the named plant species but were left untreated to serve as checks.
(§4) After about 2 weeks the seedbeds were examined to ascertain what control of the growth of seeds had been obtained.
(§5) An aqueous composition containing 2-(α,α,α -trifluoro-m-tolyl)-2-(2,2,2-trichloroethyl)oxirane was prepared as described in Example 32. The composition was then employed according to the procedures of Example 32 except that lower concentrations of the oxirane compound were employed in the composition.
(§6) The percent control of the various plant species at the employed dosage rate of the 2-(α,α,α-trifluoro-m-tolyl)- 2-(2,2,2-trichloroethyl) supplied by the composition is set forth in the following Table IV.

White Winter Wheat [2] = assay: as above; conditions: about 2 weeks
Excerpt: as §1, §2, §3, §4, §5, §6

Corn [3] = assay: as above; conditions: about 2 weeks
Excerpt: as §1, §2, §3
After about 2 weeks the seedbeds were examined to ascertain what control of the growth of seeds had been obtained. […]
as §5, §6

Water-Grass = assay: Comparative pre-emergence herbicide test
Excerpt: as §1, §2, §3, §4
Separate aqueous compositions containing the 2-(m-chlorophenyl)-2-(2,2,2-trichloroethyl)oxirane (Cmpd. A) and 2-(m-bromophenyl)-2-(2,2,2-trichloroethyl)oxirane (Cmpd. C) compounds of the present invention were prepared as in Example 32 for comparative per-emergence herbicide tests against noxious grass species with the known 2 -(p-chlorophenyl)-2-(2,2,2-trichloroethyl)oxirane (Cmpd. B) compound and 2-(p-bromophenyl)-2-(2,2,2-trichloroethyl)oxirane (Cmpd. D). The pre-emergence tests were conducted in Example 32 and the results of such tests are set forth below in Table III.

Barnyard Grass = assay: Post-emergent control, foliage spray; conditions: about two weeks
Method: (§7) An aqueous composition containing 2-(m-bromophenyl)- 2-(2,2,2-trichloroethyl)oxirane was prepared as described in Example 32. Separate portions of this composition were thereafter dispersed in a further quantity of water to prepare aqueous spray compositions containing 250, 500, 1000, 2000 and 4000 parts, respectively of the compound per million parts by weight of ultimate treating composition. These compositions were applied as foliage sprays to various grass and broadleaf plant species, the plants being of two to four inches in height and growing in seed beds. The treatments were carried out with conventional spray equipment, the plants being sprayed to the point of run-off. Similar beds of the plant species were left untreated to serve as checks. After about two weeks, the beds were examined to ascertain what control of the growth of plants had been obtained. The plant species employed, together with the percent control obtained at the employed dosage rate of the composition is set forth in the following Table V.

Corn [4] = assay: Post-emergent control, foliage spray; conditions: about two weeks
Method: as §7

Cotton = assay: Post-emergent control, foliage spray; conditions: about two weeks
Method: as §7

Crabgrass = assay: Post-emergent control, foliage spray; conditions: about two weeks
Method: as §7

Cultured Rice [5] = assay: Post-emergent control, foliage spray; conditions: about two weeks
Method: as §7

Johnson Grass = assay: Post-emergent control, foliage spray; conditions: about two weeks
Method: as §7

Pinto Beans = assay: Post-emergent control, foliage spray; conditions: about two weeks
Method: as §7

Soybean = assay: Post-emergent control, foliage spray; conditions: about two weeks
Method: as §7

White Winter Wheat [6] = assay: Post-emergent control, foliage spray; conditions: about two weeks
Method: as §7

Wild Oats = assay: Post-emergent control, foliage spray; conditions: about two weeks
Method: as §7

Yellow Foxtail = assay: Post-emergent control, foliage spray; conditions: about two weeks
Method: as §7

Question: Which “Percent Pre-Emergent Control of Seed Germination” value (“Percent Pre-Emergent Control” for short) (Cultured Rice [1]; 2.0 pounds per surface acre) does the source give for `ClC(Cl)(Cl)CC1(c2cccc(Br)c2)CO1` (centres unmarked) [Example 3, 2-(m-bromophenyl)-2-(2,2,2-trichloroethyl)oxirane] here?
Answer: 100%

Question: And the “Percent Pre-Emergent Control” value (Cultured Rice [1]; 5.0 pounds per surface acre)?
Answer: 100%

Question: What about the “Percent Pre-Emergent Control” value (White Winter Wheat [2]; 1.0 pounds per surface acre) of the same molecule?
Answer: 100%

Question: And the “Percent Pre-Emergent Control” value (White Winter Wheat [2]; 2.0 pounds per surface acre)?
Answer: 100%

Question: And the “Percent Pre-Emergent Control” value (White Winter Wheat [2]; 5.0 pounds per surface acre)?
Answer: 100%

Question: What about the “Percent Pre-Emergent Control” value (Corn [3]; 1.0 pounds per surface acre) of the same molecule?
Answer: 30%

Question: What about the “Percent Pre-Emergent Control” value (Corn [3]; 2.0 pounds per surface acre) of the same molecule?
Answer: 95%

Question: And the “Percent Pre-Emergent Control” value (Corn [3]; 5.0 pounds per surface acre)?
Answer: 95%

Question: And the “% Control” value (Water-Grass; 1/8 Lb/Acre)?
Answer: 95%

Question: What about the “% Control” value (Water-Grass; 1/16 Lb/Acre) of the same molecule?
Answer: 90%

Question: What about the “Percent Post-Emergent Control of Seed Germination” value (“Percent Post-Emergent Control” below) (Barnyard Grass; 250 parts per million) of the same molecule?
Answer: 95%

Question: And the “Percent Post-Emergent Control” value (Barnyard Grass; 500 parts per million)?
Answer: 95%

Question: And the “Percent Post-Emergent Control” value (Barnyard Grass; 1000 parts per million)?
Answer: 95%

Question: And the “Percent Post-Emergent Control” value (Barnyard Grass; 2000 parts per million)?
Answer: 95%

Question: What about the “Percent Post-Emergent Control” value (Barnyard Grass; 4000 parts per million) of the same molecule?
Answer: 95%

Question: And the “Percent Post-Emergent Control” value (Corn [4]; 250 parts per million)?
Answer: 0%

Question: What about the “Percent Post-Emergent Control” value (Corn [4]; 500 parts per million) of the same molecule?
Answer: 30%

Question: And the “Percent Post-Emergent Control” value (Corn [4]; 1000 parts per million)?
Answer: 50%

Question: What about the “Percent Post-Emergent Control” value (Corn [4]; 2000 parts per million) of the same molecule?
Answer: 95%

Question: And the “Percent Post-Emergent Control” value (Corn [4]; 4000 parts per million)?
Answer: 95%

Question: What about the “Percent Post-Emergent Control” value (Cotton; 250 parts per million) of the same molecule?
Answer: 0%

Question: What about the “Percent Post-Emergent Control” value (Cotton; 500 parts per million) of the same molecule?
Answer: 0%

Question: And the “Percent Post-Emergent Control” value (Cotton; 1000 parts per million)?
Answer: 50%

Question: And the “Percent Post-Emergent Control” value (Cotton; 2000 parts per million)?
Answer: 50%

Question: And the “Percent Post-Emergent Control” value (Cotton; 4000 parts per million)?
Answer: 65%

Question: And the “Percent Post-Emergent Control” value (Crabgrass; 250 parts per million)?
Answer: 30%

Question: What about the “Percent Post-Emergent Control” value (Crabgrass; 500 parts per million) of the same molecule?
Answer: 65%

Question: What about the “Percent Post-Emergent Control” value (Crabgrass; 1000 parts per million) of the same molecule?
Answer: 95%

Question: What about the “Percent Post-Emergent Control” value (Crabgrass; 2000 parts per million) of the same molecule?
Answer: 95%

Question: What about the “Percent Post-Emergent Control” value (Crabgrass; 4000 parts per million) of the same molecule?
Answer: 95%

Question: And the “Percent Post-Emergent Control” value (Cultured Rice [5]; 250 parts per million)?
Answer: 0%

Question: What about the “Percent Post-Emergent Control” value (Cultured Rice [5]; 500 parts per million) of the same molecule?
Answer: 0%

Question: What about the “Percent Post-Emergent Control” value (Cultured Rice [5]; 1000 parts per million) of the same molecule?
Answer: 0%

Question: What about the “Percent Post-Emergent Control” value (Cultured Rice [5]; 2000 parts per million) of the same molecule?
Answer: 40%

Question: And the “Percent Post-Emergent Control” value (Cultured Rice [5]; 4000 parts per million)?
Answer: 50%

Question: And the “Percent Post-Emergent Control” value (Johnson Grass; 250 parts per million)?
Answer: 95%

Question: What about the “Percent Post-Emergent Control” value (Johnson Grass; 500 parts per million) of the same molecule?
Answer: 95%

Question: And the “Percent Post-Emergent Control” value (Johnson Grass; 1000 parts per million)?
Answer: 95%

Question: And the “Percent Post-Emergent Control” value (Johnson Grass; 2000 parts per million)?
Answer: 95%

Question: And the “Percent Post-Emergent Control” value (Johnson Grass; 4000 parts per million)?
Answer: 95%

Question: What about the “Percent Post-Emergent Control” value (Pinto Beans; 250 parts per million) of the same molecule?
Answer: 50%

Question: And the “Percent Post-Emergent Control” value (Pinto Beans; 500 parts per million)?
Answer: 50%

Question: What about the “Percent Post-Emergent Control” value (Pinto Beans; 1000 parts per million) of the same molecule?
Answer: 50%

Question: What about the “Percent Post-Emergent Control” value (Pinto Beans; 2000 parts per million) of the same molecule?
Answer: 75%

Question: What about the “Percent Post-Emergent Control” value (Pinto Beans; 4000 parts per million) of the same molecule?
Answer: 75%

Question: What about the “Percent Post-Emergent Control” value (Soybean; 250 parts per million) of the same molecule?
Answer: 30%

Question: What about the “Percent Post-Emergent Control” value (Soybean; 500 parts per million) of the same molecule?
Answer: 30%

Question: What about the “Percent Post-Emergent Control” value (Soybean; 1000 parts per million) of the same molecule?
Answer: 50%

Question: And the “Percent Post-Emergent Control” value (Soybean; 2000 parts per million)?
Answer: 75%

Question: What about the “Percent Post-Emergent Control” value (Soybean; 4000 parts per million) of the same molecule?
Answer: 85%

Question: What about the “Percent Post-Emergent Control” value (White Winter Wheat [6]; 250 parts per million) of the same molecule?
Answer: 0%

Question: What about the “Percent Post-Emergent Control” value (White Winter Wheat [6]; 500 parts per million) of the same molecule?
Answer: 0%

Question: What about the “Percent Post-Emergent Control” value (White Winter Wheat [6]; 1000 parts per million) of the same molecule?
Answer: 50%

Question: What about the “Percent Post-Emergent Control” value (White Winter Wheat [6]; 2000 parts per million) of the same molecule?
Answer: 50%

Question: And the “Percent Post-Emergent Control” value (White Winter Wheat [6]; 4000 parts per million)?
Answer: 50%

Question: What about the “Percent Post-Emergent Control” value (Wild Oats; 250 parts per million) of the same molecule?
Answer: 50%

Question: And the “Percent Post-Emergent Control” value (Wild Oats; 500 parts per million)?
Answer: 70%

Question: And the “Percent Post-Emergent Control” value (Wild Oats; 1000 parts per million)?
Answer: 85%

Question: What about the “Percent Post-Emergent Control” value (Wild Oats; 2000 parts per million) of the same molecule?
Answer: 85%

Question: What about the “Percent Post-Emergent Control” value (Wild Oats; 4000 parts per million) of the same molecule?
Answer: 95%

Question: And the “Percent Post-Emergent Control” value (Yellow Foxtail; 250 parts per million)?
Answer: 40%

Question: What about the “Percent Post-Emergent Control” value (Yellow Foxtail; 500 parts per million) of the same molecule?
Answer: 95%

Question: What about the “Percent Post-Emergent Control” value (Yellow Foxtail; 1000 parts per million) of the same molecule?
Answer: 95%

Question: And the “Percent Post-Emergent Control” value (Yellow Foxtail; 2000 parts per million)?
Answer: 95%

Question: What about the “Percent Post-Emergent Control” value (Yellow Foxtail; 4000 parts per million) of the same molecule?
Answer: 95%

Reference: patent US4018801A, “Substituted oxirane compounds” (The Dow Chemical Company, priority 1975, dated 1977)
